The values below come from patent US12016901B2, “Tissue catalyzed growth of polymer as epithelial linings for therapy” (priority 2019, dated 2024).

The target of data set [1] is T1, catalase (Sus scrofa, UniProt O62839).
T1 construct: from tissue; host or cells: porcine small intestinal epithelium, homogenized in RIPA buffer (tissue lysate)
T1 sequence (O62839 2-527 limits assumed): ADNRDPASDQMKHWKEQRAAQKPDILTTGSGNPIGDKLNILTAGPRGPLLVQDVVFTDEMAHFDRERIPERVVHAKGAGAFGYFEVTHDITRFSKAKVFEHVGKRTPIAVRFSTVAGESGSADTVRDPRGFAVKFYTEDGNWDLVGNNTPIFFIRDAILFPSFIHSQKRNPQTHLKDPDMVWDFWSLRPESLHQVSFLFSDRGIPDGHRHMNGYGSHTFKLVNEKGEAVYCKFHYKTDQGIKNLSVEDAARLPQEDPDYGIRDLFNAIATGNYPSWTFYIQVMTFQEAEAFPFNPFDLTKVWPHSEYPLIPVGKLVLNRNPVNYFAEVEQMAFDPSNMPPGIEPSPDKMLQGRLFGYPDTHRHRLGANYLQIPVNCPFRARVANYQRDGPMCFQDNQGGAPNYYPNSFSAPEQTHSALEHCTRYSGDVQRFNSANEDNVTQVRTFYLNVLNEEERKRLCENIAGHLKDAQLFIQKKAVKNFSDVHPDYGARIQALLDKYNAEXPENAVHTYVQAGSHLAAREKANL
Nature of the data set: In vitro inhibition of catalase activity in tissue lysates. The data set is classed as biochemical, pig. The following applies: small intestinal lysates, inhibitor 20 mM, 6 hours, 4° C. The procedure: Tissue lysate preparation. Epithelial tissues of the porcine gastrointestinal tract were dissected on ice. The outer mucus layers were removed by aspiration, and then the rinsed tissues [(with 1× phosphate-buffered saline (PBS)] were frozen by liquid nitrogen. Tissues (10 mg) were incubated in the ice-cold lysis buffer (600 μl, RIPA buffer mixed with protease and phosphatase inhibitor cocktail, Sigma-Aldrich) and homogenized to form tissue lysates. The total protein concentrations of tissue lysates were measured by using the bicinchoninic acid (BCA) assay.
In vitro inhibition of catalase activity. 3-amino-1,2,4-triazole was used as the inhibitor. Tissue lysates (10 mg/ml, 100 μl) were incubated in the inhibitor solution (20 mM) for 6 hours at 4° C.

Data set [2] in a line: in vivo. The following applies: pig. The procedure:
In vivo evolution of pharmacokinetics of the praziquantel-tissue-accelerated polymerization. Pigs were sedated, intubated, and maintained with isoflurane as described above. The gastric fluid was removed from the stomach before administration. […] Praziquantel without the tissue-accelerated polymerization was used as the control. Blood samples were collected from a marginal ear vein at designated time points. Serum samples were separated from blood by centrifugation (1800 G×10 min at 4° C.) and were stored at −80° C. for further analysis. […] Serum praziquantel concentration assessment. Praziquantel concentrations in serum from in vivo experiments were analyzed using Ultra-Performance Liquid Chromatography-Tandem Mass Spectrometry (UPLC-MS/MS). Analysis was performed on a Waters ACQUITY UPLC-I-Class System aligned with a Waters Xevo TQ-S mass spectrometer (Waters Corporation, Milford Mass.). Liquid chromatographic separation was performed on an Acquity UPLC BEH C18 (50 mm×2.1 mm, 1.7-μm particle size) column at 50° C. The mobile phase consisted of aqueous 0.1% formic acid, 10 mM ammonium formate solution (Mobile Phase A) and acetonitrile: 10 mM ammonium formate, 0.1% formic acid solution (95:5 v/v) (Mobile Phase B). […] The composition of 0% Mobile Phase A and 100% Mobile Phase B was held constant until 3.50 minutes. The composition returned to 80% Mobile Phase A at 3.51 minutes and was held at this composition until completion of the run, ending at 5.00 minutes, where it remained for column equilibration. The total run time was 5.00 minutes. […] Sample introduction and ionization was by electrospray ionization (ESI) in the positive ionization mode. Waters MassLynx 4.1 software was used for data acquisition and analysis. Stock solutions of praziquantel were prepared in methanol at a concentration of 500 μg/ml. […] Samples were vortexed, sonicated for 10 minutes, and centrifuged for 10 minutes at 13,000 rpm. 200 μl of supernatant was pipetted into a 96-well plate containing 200 μl of water. Finally, 1.00 μl was injected onto the UPLC-ESI-MS system for analysis.

In the case of `Nc1nc[nH]n1` [catalase-specific inhibitor, 3-amino-1,2,4-triazole], the “decrease of catalytic capacity of lysates” value in data set [1] is reported as “around 80%”.
Consider `O=C(C1CCCCC1)N1CC(=O)N2CCc3ccccc3C2C1` (stereo not drawn) [praziquantel control, Praziquantel], for which, in data set [2] (Yorkshire), the AUC (usually the area under the concentration-time curve, a measure of exposure) was 222 ng·h/mL; the concentration at 6 h was 15.1 ng/mL; the elimination phase lay in the range of 2 to 6 h; the half-life (commonly the time in which the quantity being followed falls by half) is 1.3 h. For the same molecule, the “serum praziquantel concentration at 24 hours” value in data set [2] is on record as “no drug was detected”.
